Assay [1] concerns the target T1, human ERα binding to flcERE (Homo sapiens, UniProt P03372).
T1 construct: Full-length FLAG-tagged human ERα was expressed and purified as described previously (27); FLAG; made in house
T1 sequence (P03372 1-595): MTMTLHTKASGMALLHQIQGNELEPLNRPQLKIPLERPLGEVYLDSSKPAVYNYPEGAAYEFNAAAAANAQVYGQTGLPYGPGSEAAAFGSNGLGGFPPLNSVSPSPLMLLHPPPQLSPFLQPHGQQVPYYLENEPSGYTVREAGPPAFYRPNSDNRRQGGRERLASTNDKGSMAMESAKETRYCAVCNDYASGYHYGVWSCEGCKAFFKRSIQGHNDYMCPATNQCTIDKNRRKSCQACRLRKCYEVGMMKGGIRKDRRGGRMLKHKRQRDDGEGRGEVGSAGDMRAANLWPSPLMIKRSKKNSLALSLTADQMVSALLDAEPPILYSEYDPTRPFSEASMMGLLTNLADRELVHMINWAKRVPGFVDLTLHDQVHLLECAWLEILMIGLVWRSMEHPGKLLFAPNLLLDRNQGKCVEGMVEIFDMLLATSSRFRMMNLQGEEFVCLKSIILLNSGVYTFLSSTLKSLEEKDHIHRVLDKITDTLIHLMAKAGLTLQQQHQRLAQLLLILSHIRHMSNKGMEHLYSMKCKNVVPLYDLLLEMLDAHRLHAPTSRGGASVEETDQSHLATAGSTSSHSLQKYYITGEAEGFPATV
The assay can be described thus: FAMA: inhibition of ERα binding to flcERE. To be noted: FAMA, binding to HRE, 5 concentrations 0.5-10 μM, sequential method; read-out: IC50 ERα. As for the experimental part:
Prior to screening, the 10 mM library stocks were diluted to produce replica libraries in 384-well plates containing each small molecule at 0.25 mM (in DMSO). In our initial studies we were concerned that forming the flcERE-ERα complex first and then adding the candidate small molecule inhibitors would miss small molecules that bind at the interface. We therefore screened using the “sequential” method in which the candidate small molecules were first incubated with ERα and followed by addition of the flcERE. The assay for binding of ERα to the flcERE is a modification of our earlier assay (27). Assays were carried out at room temperature in black wall 384-well microplates (Greiner/Bio-One) in a total volume of 10 μl in buffer containing 20 mM Tris pH 7.5, 10% glycerol, 0.2 mM EDTA, 2 mM DTT, 100 mM KCl, 0.5 ng/μl poly dl:dC, […] bovine serum albumin and 100 nM 17β-estradiol (E2). For high throughput screening, a master mix without ERα and probe was prepared at 4° C. The master mix was divided into 2 parts. ERα was added to one part to 5 nM in the final assays. 7 μl of the ERα-containing mix was then dispensed into each well of a 384-well plate on ice. 100 nl of the compounds being tested was then added using a pin-transporter (V & P Scientific, Inc, CA) to a final concentration of 2.5 μM. The samples were mixed using the pin-transporter and sedimented by centrifugation for 2 min. at 4° C. and incubated on ice for 10 min. The flcERE probe was added to the other aliquot of the mix to 1 nM. 3 μl of the mix containing the flcERE probe was added to each well containing ERα and the test compound. The samples were mixed using the pin-transporter, the plates were briefly centrifuged and incubated at room temperature for 10 min. and fluorescence anisotropy (FA) was measured using a BMG PheraStar (BMG Labtech) microplate reader (module: 485 520) with excitation at 485λ and emission at 520λ. To identify small molecules that were highly fluorescent, or quench fluorescence, fluorescence intensity was also measured.
(§1) Dose response curves for selected compounds were carried out as described for the HTS screen except that each well contained the indicated concentration of test compound. PR assays were carried out in the same buffer used for ERα assays and contained 1 nM flcPRE and 11 nM PR-B and 100 nM progesterone. The buffer used for AR was similar but also contained 5 μM ZnCl, 5 mM NaF, 0.6 μM CHAPS and 100 nM dihydrotestosterone. AR assays contained 1 nM flcARE and 50 nM full-length wild-type AR.

Assay [2] deals with T2, human androgen receptor (AR) binding to flARE (Homo sapiens, UniProt P10275).
T2 construct: AR assays contained 1 nM flcARE and 50 nM full-length wild-type AR; FLAG; made in house
T2 sequence (P10275 1-920): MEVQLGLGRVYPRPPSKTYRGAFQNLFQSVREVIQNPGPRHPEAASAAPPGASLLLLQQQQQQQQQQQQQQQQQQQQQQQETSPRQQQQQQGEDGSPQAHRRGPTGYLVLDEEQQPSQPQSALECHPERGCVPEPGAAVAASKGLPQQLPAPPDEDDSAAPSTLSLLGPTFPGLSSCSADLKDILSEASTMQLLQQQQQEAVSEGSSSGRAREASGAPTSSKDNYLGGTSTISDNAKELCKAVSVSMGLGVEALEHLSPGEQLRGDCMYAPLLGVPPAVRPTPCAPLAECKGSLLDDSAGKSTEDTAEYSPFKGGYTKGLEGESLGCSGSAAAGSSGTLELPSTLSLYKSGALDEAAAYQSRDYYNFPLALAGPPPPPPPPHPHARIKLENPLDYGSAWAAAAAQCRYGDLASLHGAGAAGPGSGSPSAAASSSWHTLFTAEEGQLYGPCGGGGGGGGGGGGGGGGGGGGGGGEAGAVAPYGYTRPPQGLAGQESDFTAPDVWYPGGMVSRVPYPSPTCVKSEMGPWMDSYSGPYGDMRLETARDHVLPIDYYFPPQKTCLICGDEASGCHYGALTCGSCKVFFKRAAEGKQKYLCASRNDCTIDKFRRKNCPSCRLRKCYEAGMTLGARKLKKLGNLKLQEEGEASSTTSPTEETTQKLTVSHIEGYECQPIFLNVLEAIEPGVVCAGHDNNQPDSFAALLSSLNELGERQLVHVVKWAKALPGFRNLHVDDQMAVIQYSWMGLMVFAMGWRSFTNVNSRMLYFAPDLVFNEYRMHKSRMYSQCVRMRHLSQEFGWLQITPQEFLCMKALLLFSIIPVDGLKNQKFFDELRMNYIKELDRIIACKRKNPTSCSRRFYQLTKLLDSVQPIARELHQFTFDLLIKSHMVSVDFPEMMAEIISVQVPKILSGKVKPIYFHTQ
Put plainly: FAMA: inhibition of AR binding to flcARE. To be noted: binding to HRE, 5 concentrations 0.5-10 μM, sequential method. As for the experimental part:
as §1
(§2) Specificity was evaluated in dose-response studies by quantitative FAMA using purified full-length human PR binding to a fluorescein-labeled progesterone/glucocorticoid response element (flPRE) and full-length human androgen receptor (AR) binding to a fluorescein-labeled androgen response element (flARE).

Assay [3] has as its target T3, human PR-B binding to flPRE (Homo sapiens, UniProt P06401).
T3 construct: FLAG; made in house
T3 sequence (P06401 1-933): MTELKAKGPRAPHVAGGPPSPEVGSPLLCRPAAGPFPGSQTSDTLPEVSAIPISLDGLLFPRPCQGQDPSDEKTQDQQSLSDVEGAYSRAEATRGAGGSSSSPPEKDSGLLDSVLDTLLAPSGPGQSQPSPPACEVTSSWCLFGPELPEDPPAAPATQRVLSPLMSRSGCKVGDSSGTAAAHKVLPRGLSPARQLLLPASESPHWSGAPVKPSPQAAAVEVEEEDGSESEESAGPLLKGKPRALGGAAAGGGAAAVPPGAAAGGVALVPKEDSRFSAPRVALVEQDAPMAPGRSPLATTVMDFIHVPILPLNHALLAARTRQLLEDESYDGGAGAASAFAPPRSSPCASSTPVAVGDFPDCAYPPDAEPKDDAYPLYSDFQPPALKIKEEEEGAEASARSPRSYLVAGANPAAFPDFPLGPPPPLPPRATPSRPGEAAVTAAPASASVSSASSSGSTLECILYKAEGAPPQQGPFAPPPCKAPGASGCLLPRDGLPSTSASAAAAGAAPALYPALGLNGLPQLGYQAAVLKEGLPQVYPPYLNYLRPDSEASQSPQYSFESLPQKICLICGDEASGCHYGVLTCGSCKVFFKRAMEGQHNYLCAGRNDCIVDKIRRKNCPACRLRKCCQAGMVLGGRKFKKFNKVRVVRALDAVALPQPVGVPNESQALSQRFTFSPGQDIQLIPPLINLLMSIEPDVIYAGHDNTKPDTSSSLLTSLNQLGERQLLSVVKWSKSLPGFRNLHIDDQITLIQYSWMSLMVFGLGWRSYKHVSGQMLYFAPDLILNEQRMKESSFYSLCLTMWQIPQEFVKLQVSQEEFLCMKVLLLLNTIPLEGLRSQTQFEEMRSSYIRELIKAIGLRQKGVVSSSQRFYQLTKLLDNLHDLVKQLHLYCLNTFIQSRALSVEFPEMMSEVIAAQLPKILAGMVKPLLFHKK
Put plainly: FAMA: inhibition of PR binding to flcPRE. The conditions noted are these: binding to HRE, 5 concentrations 0.5-10 μM, sequential method. As for the experimental part: as §1, §2

Regarding `O=C(OC1C2COC(O2)C(OC(=O)c2ccccc2)C1OC(=O)c1ccccc1)c1ccccc1` (stereo not shown) [Compound 1387], the half-inhibitory concentration (IC50) (as a rule, the midpoint of a concentration-inhibition curve) in assay [1] worked out at 4.5 µM; in assay [2], 4.8 µM; in assay [3], 6.5 µM.
With `CN(C)c1ncnc2c1cnn2-c1ccc(Cl)cc1` [Compound 1445], the IC50 is 0.6 µM in assay [1], 0.7 µM in assay [2] and 1.2 µM in assay [3].
For `CC1CCCCN1.CC1CCCCN1.[Cl][Cu][Cl]` (stereo not shown) [Compound 1826] the same measures were 7 µM, 8 µM and 6 µM.
As to `O=C(O)/C=C/c1ccc([N+](=O)[O-])cc1` [Compound 2067], the IC50 in assay [1] was found to be 5 µM; in assay [2] it was 3 µM.
As to `NNC(=O)OCc1ccccc1` [Compound 2287], the IC50 in assay [1] is 2.1 µM; in assay [2] it was 1.7 µM; in assay [3], 2.7 µM.
As for `CCNc1ccc(-c2ccc(NCC)cc2)cc1` [Compound 2674], the results for the IC50 in assay [1], in assay [2] and in assay [3] were 5.5 µM, 5.8 µM and 6.2 µM, respectively.
Turning to `CCCCC(C)O` (stereo not shown) [Compound 3706], the figures for the IC50 in assay [1], in assay [2] and in assay [3] were 0.8 µM, 1 µM and 1.5 µM, respectively.
Take `CCCCCCCC(=O)OC` [Compound 3710]: the IC50 is 2.5 µM in assay [1] and 2.9 µM in assay [3].
As for `CCCCCCCCCC(=O)OC` [Compound 3713], the IC50 in assay [3] was determined as 7 µM.
Consider `CNc1ccccc1O` [Compound 3879], for which the results for the IC50 in assay [1], in assay [2] and in assay [3] were 3.7 µM, 7.5 µM and 6.5 µM, respectively.
For `Brc1cccs1` [Compound 4456], the IC50 in assay [1] is 7.5 µM; in assay [2] it was > 10 µM; in assay [3], > 10 µM.
In the case of `CCOC(=O)C(CC)(C(=O)OCC)C(C)C` [Compound 4695], the IC50 amounted to 2.5 µM in assay [1], 4.8 µM in assay [2] and 4 µM in assay [3].
As for `CCCN(C(C)=O)c1ccccc1` [Compound 4700], the results for the IC50 in assay [1], in assay [2] and in assay [3] were 2 µM, 2 µM and 2.7 µM, respectively.
On to `O=C(O)/C=C/c1ccccc1Cl` [Compound 4792], for which the IC50 in assay [1] was > 10 µM; in assay [2], 7.5 µM; in assay [3], > 10 µM.
Regarding `CC(C)CCOC(=S)S` [Compound 4864], the IC50 in assay [1] was determined as 8 µM; in assay [2], 6.5 µM; in assay [3], 8.8 µM.
Consider `CCCCCCCCCCCCCCCC[N+](C)(C)CCN(Cc1ccc(OC)cc1)c1ncccn1` [Compound 5648], for which the IC50 was found to be 6.5 µM in assay [1], 4.5 µM in assay [2] and 7.3 µM in assay [3].
With `O=[N+]([O-])/C=C/c1ccco1` [Compound 5650], the IC50 in assay [1] was 8 µM; in assay [2], 5.5 µM; in assay [3], 7.5 µM.
For `CCC1CCC(C)NC1` (stereo not shown) [Compound 6119] the same measures were 9 µM, 7.4 µM and 9 µM.
With `CC(C)/C=N/Nc1ccc([N+](=O)[O-])cc1[N+](=O)[O-]` [Compound 6122], the IC50 in assay [1] was found to be 5.8 µM; in assay [2], 3.7 µM; in assay [3], 5.3 µM.
On to `O=[N+]([O-])c1ccc(CO)o1` [Compound 6454], for which the IC50 in assay [1] was 5.8 µM; in assay [2], > 10 µM.
Consider `CC(=O)N(C)c1ccc(N)cc1` [Compound 7107], for which the values for the IC50 in assay [1] and in assay [3] were 5 µM and > 10 µM, respectively.
As to `O=C(CCBr)OCCc1ccccc1` [Compound 7122], the IC50 in assay [1] was determined as 5 µM; in assay [2], 7.5 µM.
With `CCN(CC)CCOC(=O)c1cc(Br)cc(-c2ccccc2)c1O` [Compound 7450], the IC50 was 9.8 µM in assay [1], > 10 µM in assay [2] and > 10 µM in assay [3].
Turning to `Nc1ccc(S(=O)(=O)c2ccc(NCN3C(=O)NC(=O)C(=O)C3=O)cc2)cc1` [Compound 34238], the IC50 in assay [1] is 1.8 µM; in assay [3] it was > 10 µM.
In assay [3], `C=C(CC(=O)O)C(=O)O.C=CC(=O)O` [Compound 146443] gave a concentration for half-maximal inhibition (IC50) of 0.4 µM.
Take `CCc1c(O)c2c(c(O)c1C(C)=O)C(=O)c1c(cc(O)c(C(=O)O)c1C(=O)O)C2=O` [Compound 170008]: the IC50 in assay [1] and in assay [2] was 9 µM in each case.

(Values after patent US8871751B2, “Compositions and methods relating to nuclear hormone and steroid hormone receptors including inhibitors of estrogen receptor alpha-mediated gene expression and inhibition of breast cancer” (The Board of Trustees of the University of Illinois, priority 2008, dated 2014).)
